The source of these data is US20240417398A1, “TETRAHYDRONAPTHYRIDINE AND RELATED ANALOGS FOR INHIBITING YAP/TAZ-TEAD” (SpringWorks Therapeutics, Inc., priority 2023, published 2024).

The term IC50 denotes the point on the concentration scale where inhibition reaches its midpoint.

In one assay the test system is YAP/TAZ-TEAD transcription. In words: Reporter gene assay for measuring the inhibition of YAP/TAZ-TEAD transcription (TEAD-responsive element luciferase reporter, Hek293T cells). The class given is cell-based. Particulars: Hek293T cells transfected with TEAD-responsive element luciferase reporter, 24 hours incubation. How it is done: Hek293T cells were cultured in DMEM supplemented with 10% fetal bovine serum, Sodium pyruvate, Sodium bicarbonate, L-glutamine. The cells were harvested and transiently transfected with TEAD-responsive element luciferase reporter. Transfected cells were plated in 384-well plate containing pre-diluted compounds. After 24 hours incubation at 37° C./5% CO2, assay plates were cooled to room temperature and levelled to an equal volume per well, prior to the addition of 25 uL luciferase substrate SteadyLite (Perkin Elmer)/well. The plate was shaken for 10 min at 600 rpm, centrifuged for 1 min at 500 rpm and measured with an Envision reader (PerkinElmer). The amount of relative light units produced by the TEAD reporter was used to calculate the percentage of inhibition.
The percent of reporter inhibition was calculated in the presence of a positive control inhibitor (100% inhibition) versus a condition with the presence of the vehicle basal activity of the reporter (0% inhibition). The ability of a test compound to inhibit this activity was determined as: Percentage inhibition=[1-((RLU determined in the presence of vehicle−RLU determined for sample with test compound present) divided by (RLU determined in the presence of vehicle−RLU determined for sample with positive control inhibitor))]*100.
The activities of example compounds tested are depicted in Table 3. The activity ranges A, B and C refer to IC50 values in the reporter gene assay as follows: “A”: IC50<1 μM; “B”: 1 μM≤IC50 10 μM and “C”: IC50>10 μM; NT=not tested.
(In a reporter assay the amount or activity of a reporter protein is the signal.)
`O=C(CC(F)(F)F)NCC1Cc2ncccc2N(c2ccc(C(F)(F)F)cc2)C1` (single isomer, unassigned) [Cpd. No. 38-En2, (R)- or (S)-3,3,3-trifluoro-N-((1-(4-(trifluoromethyl)phenyl)-1,2,3,4-tetrahydro-1,5-naphthyridin-3-yl)methyl)propanamide] had an IC50 of less than 1000 nM.

Turning to `[2H]C([2H])([2H])C(=O)NCC1Cc2ncccc2N(c2ccc(C(F)(F)F)cc2)C1` (single isomer, unassigned) [Cpd. No. 34-En1, (R)- or (S)-N-((1-(4-(trifluoromethyl)phenyl)-1,2,3,4-tetrahydro-1,5-naphthyridin-3-yl)methyl)acetamide-2,2,2-d3], the IC50 is 1000 to 10000 nM.

Staying with this assay, now noted: Homo sapiens, HEK-293T, 24 h, Hek293T cells transfected with TEAD-responsive element luciferase reporter, 24 hours incubation.
For the compound `CC(=O)NCC1Cc2nc(N(C)C)ccc2N(c2ccc(C(F)(F)F)cc2)C1` (stereo not shown) [Cpd. No. 52, N-((6-(dimethylamino)-1-(4-(trifluoromethyl)phenyl)-1,2,3,4-tetrahydro-1,5-naphthyridin-3-yl)methyl)acetamide], the IC50 is less than 1000 nM.

In turn, `O=C(Cc1ccccc1)NCC1Cc2ncccc2N(c2ccc(C(F)(F)F)cc2)C1` (stereo not shown) [Cpd. No. 35, 2-phenyl-N-((1-(4-(trifluoromethyl)phenyl)-1,2,3,4-tetrahydro-1,5-naphthyridin-3-yl)methyl)acetamide] registered a half-inhibitory concentration (IC50) of 1000 to 10000 nM. Still for that read-out and setting: with `CC(=O)NCC1Cc2ncc(Br)cc2N(c2ccc(C(F)(F)F)cc2)C1` (stereo not shown) [Cpd. No. 44, N-((7-bromo-1-(4-(trifluoromethyl)phenyl)-1,2,3,4-tetrahydro-1,5-naphthyridin-3-yl)methyl)acetamide] the figure was less than 1000 nM; with `O=C(CC(F)(F)F)NCC1Cc2ncccc2N(c2ccc(C(F)(F)F)cc2)C1` (single isomer, unassigned) [Cpd. No. 38-En1, (R)- or (S)-3,3,3-trifluoro-N-((1-(4-(trifluoromethyl)phenyl)-1,2,3,4-tetrahydro-1,5-naphthyridin-3-yl)methyl)propanamide], 1000 to 10000 nM; with `CCC(=O)NCC1Cc2ncccc2N(c2ccc(C(F)(F)F)cc2)C1` (single isomer, unassigned) [Cpd. No. 17-En1, (R)- or (S)-N-((1-(4-(trifluoromethyl)phenyl)-1,2,3,4-tetrahydro-1,5-naphthyridin-3-yl)methyl)propionamide], 1000 to 10000 nM. Still for that read-out and setting: for `CC(=O)NCC1(C)Cc2ncccc2N(c2ccc(C(F)(F)F)cc2)C1` (stereo not shown) [Cpd. No. 47, N-((3-methyl-1-(4-(trifluoromethyl)phenyl)-1,2,3,4-tetrahydro-1,5-naphthyridin-3-yl)methyl)acetamide] the value was less than 1000 nM. The same measure, in the same setting: for `O=C(CC(F)(F)F)NCC1Cc2ncccc2N(c2ccc(C(F)(F)F)cc2)C1` (stereo not shown) [Cpd. No. 38, 3,3,3-trifluoro-N-((1-(4-(trifluoromethyl)phenyl)-1,2,3,4-tetrahydro-1,5-naphthyridin-3-yl)methyl)propanamide] the value was less than 1000 nM; for `C=CC(=O)NCC1Cc2c(Oc3cccnc3)cccc2N(c2ccc(C(F)(F)F)cc2)C1` (stereo not shown) [Cpd. No. 3, N-((5-(pyridin-3-yloxy)-1-(4-(trifluoromethyl)phenyl)-1,2,3,4-tetrahydroquinolin-3-yl)methyl)acrylamide], less than 1000 nM. `O=C(O)CC1Cc2ncccc2N(c2ccc(C(F)(F)F)cc2)C1` (stereo not shown) [Cpd. No. 13, 2-(1-(4-(trifluoromethyl)phenyl)-1,2,3,4-tetrahydro-1,5-naphthyridin-3-yl)acetic acid] had an IC50 of 1000 to 10000 nM.

On to `CC(=O)NCC1Cc2nc(OC(F)F)ccc2N(c2ccc(C(F)(F)F)cc2)C1` (stereo not shown) [Cpd. No. 60, N-((6-(difluoromethoxy)-1-(4-(trifluoromethyl)phenyl)-1,2,3,4-tetrahydro-1,5-naphthyridin-3-yl)methyl)acetamide], for which the IC50 was less than 1000 nM. On the same count and under the same terms, with `CC(=O)NCC1Cc2c(ccn(C)c2=O)N(c2ccc(C(F)(F)F)cc2)C1` (stereo not shown) [Cpd. No. 54, N-((6-methyl-5-oxo-1-(4-(trifluoromethyl)phenyl)-1,2,3,4,5,6-hexahydro-1,6-naphthyridin-3-yl)methyl)acetamide] the figure was less than 1000 nM.
